Measured values: EP1021178B1, “SELENOPHENE ANTI-TUMOR AGENTS” (Purdue Research Foundation, priority 1996, dated 1997)

What was measured:
Test in all cases: NCI human tumor cell panel
786-0 = assay type: cell-based; details: 786-0, read-out: Log10 LC50 (converted)
Description: (§1) Considering the diversity of tumors in terms of cell type, morphology, growth rate and other cellular characteristics, the U.S. National Cancer Institute (NCI) has developed a "disease-oriented" approach to antitumor activity screening (M.R. Boyd, in "Principle of Practice of Oncology" J.T. Devita, S. Hellman, S.A. Rosenberg (Eds.) Vol. 3, PPO Update, No. 10, 1989). This in vitro prescreening system is based on the measurement of antitumor cytotoxicity against human tumor cell line panels consisting of approximately 60 cell lines of major human tumors (including leukemia and slower growing tumor cells such as lung, colon, breast, skin, kidney, etc.). The most important advantage of the new in vitro screening panels is the opportunity to identify compounds that are selectively more cytotoxic to cells of slowly growing solid tumors than to rapidly growing leukemia cells.
(§2) The cytotoxic activity of the present selenophene compounds have been measured utilizing two different assays or screens. The first screen measures the cytotoxicity against a panel of sixty different human tumor cell lines. This assay provides data regarding the general cytotoxicity of an individual compound. In particular this type of assay is useful in identifying compounds which have enhanced cytotoxic activity against slow growing tumors as compared to faster growing tumor cells such as leukemia tumor cell lines. The identification of such compounds is critical since previously identified antitumor agents have low cytotoxic activity against slower growing tumors. […] The specificity of a cytotoxic compound for tumor cell lines relative to normal cells is an important characteristic of an effective antitumor agent.
(§3) Antitumor cytotoxicity data generated from the National Cancer Institute human tumor cell panels can also be expressed in a graphic pattern (mean graph) to display differential cell growth inhibition (K.D. Paull, R.H. Shoemaker, L. Hodes, A. Monks, D.A. Scudiero, L. Rubinstein, J. Plowman and M.R. Boyd, J. Nail. Cancer Inst., 81, 1088, 1989.) In the mean graph, the arithmetic mean of the logarithm of the GI50 (50% growth inhibition), TGI (total growth inhibition) or LC50 (50% lethal concentration) values is used as an anchor point. […] The length of a bar is indicative of differential cytotoxicity against a specific type of tumor cells or tumor panels.
(§4) The antitumor cytotoxicity of the selenophene compounds tested in those in vitro assays was measured by a microculture assay using either a 3-(4,5-dimethylthiazol-2-yl)-2,5-diphenyltetrazolium bromide (MTT) or sulforhodamine B (SRB) based assay. [M.R. Boyd in "Principles and Practices of Oncology," V.T. DeVita, Jr.]. The experiments were conducted at Purdue University in 96-well microtiter plates and the cytotoxic effects of the selenophene compounds on those cells were measured by cell count using a Coulter Z.F. counter (Hialeah, FL). The results are expressed as GI50, the concentration of drug at which cell numbers are reduced to 50% of control cell culture [T.C.K. Chan, C.J. Chang, N.M. Koonchanok and R.L. Geahlen, Biochem. Biophys. Res. Commun., 193, 1152, (1993); S. Hellman and S.A. Rosenberg (Eds.), Vol. 3, PPO Updates, Number 10, (1989).]
(§5) This in vitro microculture assay has an advantage over in vivo assays in that results are obtained within a week as opposed to several months. The MTT assay is based on the production of a dark blue formazan product by dehydrogenase in the mitochondria of live tumor cells after exposure to drug for 6 days [M.C. Alley, D.A. Scudiero, A. Monks, M.L. Hursey, M.J. Czerwinski, D.L. Fine, B.J. Abbott, J.G. Mayo, R.H. Shoemaker and M.R. Boyd, Cancer Res., 48, 589, 1988]. Thus, only live cells are stained and can be measured at 570 nm. […]

ACHN = assay type: cell-based; details: read-out: Log10 LC50 (converted)
Description: as §1, §2, §3, §4, §5

HCC-2998 = assay type: cell-based; details: HCC 2998, read-out: Log10 LC50 (converted)
Description: as §1, §2, §3, §4, §5

HOP-92 = assay type: cell-based; details: HOP-92, read-out: Log10 LC50 (converted)
Description: as §1, §2, §3, §4, §5

HS 578T = assay type: cell-based; details: read-out: Log10 LC50 (converted)
Description: as §1, §2, §3, §4, §5

IGROV1 = assay type: cell-based; details: IGROV-1, read-out: Log10 LC50 (converted)
Description: as §1, §2, §3, §4, §5

LOX IMVI = assay type: cell-based; details: read-out: Log10 LC50 (converted)
Description: as §1, §2, §3, §4, §5

M14 = assay type: cell-based; details: M14, read-out: Log10 LC50 (converted)
Description: as §1, §2, §3, §4, §5

MOLT-4 = assay type: cell-based; details: MOLT-4, read-out: Log10 LC50 (converted)
Description: as §1, §2, §3, §4, §5

NCI-H322M = assay type: cell-based; details: read-out: Log10 LC50 (converted)
Description: as §1, §2, §3, §4, §5

NCI-H460 = assay type: cell-based; details: NCI-H460, read-out: Log10 LC50 (converted)
Description: as §1, §2, §3, §4, §5

NCI-H522 = assay type: cell-based; details: NCI-H522, read-out: Log10 LC50 (converted)
Description: as §1, §2, §3, §4, §5

OVCAR-4 = assay type: cell-based; details: OVCAR-4, read-out: Log10 LC50 (converted)
Description: as §1, §2, §3, §4, §5

PC-3 = assay type: cell-based; details: PC-3, read-out: Log10 LC50 (converted)
Description: as §1, §2, §3, §4, §5

RPMI-8226 = assay type: cell-based; details: RPMI-8226, read-out: Log10 LC50 (converted)
Description: as §1, §2, §3, §4, §5

SK-MEL-2 = assay type: cell-based; details: SK-MEL-2, read-out: Log10 LC50 (converted)
Description: as §1, §2, §3, §4, §5

SR = assay type: cell-based; details: read-out: Log10 LC50 (converted)
Description: as §1, §2, §3, §4, §5

UACC-62 = assay type: cell-based; details: UACC-62, read-out: Log10 LC50 (converted)
Description: as §1, §2, §3, §4, §5

EKVX = details: read-out: Log10 LC50 (converted)
NCI-H23 = details: for CC50: NCI-H23, read-out: Log10 LC50 (converted)
SF-295 = details: SF-295, read-out: Log10 LC50 (converted)

Row | SMILES | CC50 (786-0) | CC50 (ACHN) | CC50 (HCC-2998) | CC50 (HOP-92) | CC50 (HS 578T) | CC50 (IGROV1) | CC50 (LOX IMVI) | CC50 (M14) | CC50 (MOLT-4) | LC50 (concentration killing 50% of cells) (NCI-H322M) | LC50 (concentration killing 50% of cells) (NCI-H460) | CC50 (NCI-H522) | CC50 (OVCAR-4) | CC50 (PC-3) | CC50 (RPMI-8226) | CC50 (SK-MEL-2) | CC50 (UACC-62) | CC50 (EKVX) | CC50 (NCI-H23) | CC50 (SF-295) | also measured
1 | O=Cc1ccc(-c2ccc(-c3ccc(C=O)[se]3)[se]2)[se]1 | > 100 µM | > 100 µM | > 100 µM | > 100 µM | > 100 µM | 74.1 µM | > 100 µM | > 100 µM | > 100 µM | > 100 µM | > 100 µM | 95.5 µM | > 100 µM | > 100 µM | > 100 µM | > 100 µM | > 100 µM | > 100 µM | > 100 µM | > 100 µM | CC50 (SR): > 100 µM
2 | O=Cc1ccc(-c2ccc(-c3ccc[se]3)[se]2)[se]1 | 43.7 µM | 46.8 µM | 38.9 µM | 63.1 µM | 53.7 µM | 39.8 µM | 77.6 µM | 72.4 µM | > 100 µM | 60.3 µM | 40.7 µM | 42.7 µM | 60.3 µM | 87.1 µM | > 100 µM | > 100 µM | 66.1 µM | > 100 µM | 69.2 µM | 53.7 µM | 
3 | OCc1ccc(-c2ccc(-c3ccc[se]3)[se]2)[se]1 | 17.4 µM |  | 53.7 µM | 38 µM |  | 12.3 µM | 37.2 µM | 61.7 µM | > 100 µM | 47.9 µM | 22.9 µM | 23.4 µM | 47.9 µM | 36.3 µM | > 100 µM | 69.2 µM | 67.6 µM | 42.7 µM | 70.8 µM | 72.4 µM | CC50 (SR): > 100 µM; IC (TGI) (NCI-H23; NCI-H23, read-out: Log10 TGI): 30.9 µM
4 | O=Cc1ccc(-c2ccc(-c3cccs3)[se]2)s1 | > 100 µM | > 100 µM | 20.9 µM | > 100 µM | > 100 µM | > 100 µM | > 100 µM | > 100 µM | > 100 µM | > 100 µM | > 100 µM | > 100 µM | > 100 µM | > 100 µM | > 100 µM | > 100 µM | 85.1 µM | > 100 µM | > 100 µM | > 100 µM | CC50 (SR): > 100 µM
5 | OCc1ccc(-c2ccc(-c3ccc(CO)s3)[se]2)s1 | > 100 µM | > 100 µM | > 100 µM | > 100 µM | > 100 µM |  | > 100 µM | > 100 µM | > 100 µM | > 100 µM | > 100 µM | > 100 µM | > 100 µM | > 100 µM | > 100 µM | > 100 µM | > 100 µM | > 100 µM | > 100 µM | > 100 µM | CC50 (SR): > 100 µM
6 | OCc1ccc(-c2ccc(-c3ccc(CO)[se]3)s2)[se]1 | > 100 µM | > 100 µM | 2.45 µM | 0.324 µM | > 100 µM | > 100 µM | > 100 µM | > 100 µM | > 100 µM | > 100 µM | > 100 µM |  | > 100 µM | > 100 µM | > 100 µM | > 100 µM | > 100 µM | > 100 µM | > 100 µM | > 100 µM | CC50 (SR): > 100 µM
